In ChEMBL document CHEMBL1143379, “Isolation, structure elucidation and cytotoxic evaluation of endiandrin B from the Australian rainforest plant Endiandra anthropophagorum” (Bioorg Med Chem, 2009):
The source made the active and inactive calls. The rule behind the calls is not given here.

Tests used:
A549 [1] = experiment: Cytotoxicity against human A549 cells at 100 uM; type: functional
A549 [2] = experiment: Induction of early stage apoptosis in human A549 cells assessed as mitotracker dye uptake at 30 uM after 24 hrs; type: functional, cell-based
A549 [3] = experiment: Cytotoxicity against human A549 cells after 24 hrs by YO-PRO-1 assay; type: functional, cell-based; conditions: A549, 24 h
A549 [4] = experiment: Cytotoxicity against human A549 cells after 24 hrs by propidium iodide assay; type: functional, cell-based; conditions: A549, 24 h
A549 [5] = experiment: Induction of early stage apoptosis in human A549 cells assessed as mitotracker dye uptake; type: functional, cell-based

Structure (SMILES) | inhibition at 100 µM (A549 [1]) [%] | IC50 (A549 [3]) | IC50 (A549 [4]) | also measured
COc1ccc([C@@H]2[C@@H](C)[C@@H](C)[C@@H]2c2ccc(OC)c(OC)c2)cc1OC [CINBALANSAN] | 34 | – | – | Activity (A549 [2]): Active
COC[C@H]1OC(=O)c2coc3c2[C@@]1(C)C1=C(C3=O)[C@@H]2CCC(=O)[C@@]2(C)C[C@H]1OC(C)=O [WORTMANNIN] | – | 0.00428 µg/mL | 4.28 ng/mL | –
COc1cc2c(c(OC)c1OC)-c1ccc(OC)c(=O)cc1[C@@H](NC(C)=O)CC2 [COLCHICINE] | – | 0.0108 µg/mL | 10.8 ng/mL | –
COc1cc([C@@H]2[C@@H](C)[C@H](C)[C@H]2c2ccc(O)c(OC)c2)ccc1O [ENDIANDRIN A] | 76 | – | – | –
COc1cc([C@@H]2[C@@H](C)[C@@H](C)[C@@H]2c2ccc(O)c(OC)c2)ccc1O [ENDIANDRIN B] | 75 | – | – | –
CC(=O)O[C@H]1C(=O)[C@@]2(C)[C@H]([C@H](OC(=O)c3ccccc3)[C@]3(O)C[C@H](OC(=O)[C@H](O)[C@@H](NC(=O)c4ccccc4)c4ccccc4)C(C)=C1C3(C)C)[C@]1(OC(C)=O)CO[C@@H]1C[C@@H]2O [PACLITAXEL] | – | 0.0196 µg/mL | – | –
COc1cc(C[C@@H](C)[C@H](C)Cc2ccc(O)c(OC)c2)ccc1O [(-)-DIHYDROGUAIARETICACID] | – | 7.49 µM | 7.49 µM | IC50 (A549 [5]): 31.2 µM
